# Assay results reported in ChEMBL document CHEMBL1151490, “Inhibition of farnesyl protein transferase by new farnesyl phosphonate derivatives of phenylalanine” (Bioorg Med Chem Lett, 1996).
# How the values were obtained:
# Squalene synthase = biological target: T1, Squalene synthase (Rattus norvegicus, UniProt Q02769); assay: Inhibition of squalene synthase from rat liver microsomes
# T1 sequence (Q02769 whole entry): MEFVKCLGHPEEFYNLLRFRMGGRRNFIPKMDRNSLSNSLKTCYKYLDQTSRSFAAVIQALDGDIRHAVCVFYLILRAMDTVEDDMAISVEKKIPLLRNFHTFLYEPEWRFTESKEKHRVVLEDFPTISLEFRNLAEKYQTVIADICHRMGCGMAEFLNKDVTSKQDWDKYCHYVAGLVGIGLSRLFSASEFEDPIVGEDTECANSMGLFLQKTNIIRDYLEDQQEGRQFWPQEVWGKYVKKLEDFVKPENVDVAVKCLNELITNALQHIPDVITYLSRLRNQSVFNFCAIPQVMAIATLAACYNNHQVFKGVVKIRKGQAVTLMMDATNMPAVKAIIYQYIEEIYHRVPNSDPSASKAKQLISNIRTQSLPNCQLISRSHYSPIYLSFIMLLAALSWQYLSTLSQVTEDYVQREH
# [1] = biological target: T2, Protein farnesyltransferase (Bos taurus, UniProt P29702+P49355); assay: Inhibition of farnesyl protein transferase from bovine brain
# [2] = biological target: T2, Protein farnesyltransferase; assay: Inhibition of Farnesyltransferase from bovine brain
Structure (SMILES),IC50 (Squalene synthase),IC50 [1],IC50 [2]
CC(C)=CCC/C(C)=C/CC/C(C)=C/CC(C(=O)O)C(=O)NC(Cc1ccccc1)C(=O)O (centres undefined),2400 nM,37000 nM,
CC(C)=CCC/C(C)=C/CC/C(C)=C/CC(CCP(=O)(O)O)C(=O)N[C@@H](Cc1ccccc1)C(=O)O (some centres undefined),4200 nM,10000 nM,
CC(C)=CCC/C(C)=C/CC/C(C)=C/C(O)P(=O)(O)O (centres undefined),2300 nM,410 nM,
COC(=O)[C@H](Cc1ccccc1)NC(=O)C(C/C=C(\C)CC/C=C(\C)CCC=C(C)C)P(=O)(O)O (some centres undefined),1400 nM,> 100000 nM,
CC(C)=CCC/C(C)=C/CC/C(C)=C/CC(C(=O)NCCc1ccccc1)P(=O)(O)O (centres undefined),480 nM,13000 nM,
CC(C)=CCC/C(C)=C/CCCC(P(=O)(O)O)P(=O)(O)O [SQ-34919],,,80000 nM

# Further lines, results first:
IC50 (Squalene synthase),IC50 [1],IC50 [2],Structure (SMILES)
1300 nM,80 nM,,CC(C)=CCC/C(C)=C/CC/C(C)=C/CC(C(=O)N[C@@H](Cc1ccccc1)C(=O)O)P(=O)(O)O (some centres undefined)
90 nM,170 nM,,CC(C)=CCC/C(C)=C/CC/C(C)=C/CC(CP(=O)(O)O)C(=O)N[C@@H](Cc1ccccc1)C(=O)O (some centres undefined)
500 nM,980 nM,,CC(C)=CCC/C(C)=C/CC/C(C)=C/CC(C(=O)N[C@H](Cc1ccccc1)C(=O)O)P(=O)(O)O (some centres undefined)
220 nM,470 nM,,CC(C)=CCC/C(C)=C/CC/C(C)=C/CC(CC(=O)N[C@@H](Cc1ccccc1)C(=O)O)P(=O)(O)O (some centres undefined)
